Paper PMC12655351, “Synthesis and Anticancer Activity Evaluation of New 5-((5-Nitrofuran-2-yl)allylidene)-2-thioxo-4-thiazolidinones” (Pharmaceuticals, 2025)

Assays:
[1] = test system: AGS; assay: MTT assay; assay type: cell-based; details: Homo sapiens, 24 h of treatment
Method: (§1) The NCI-60 screening protocol utilizes the sulforhodamine B (SRB) assay following 48 h of compound exposure. […] The MTT assay was performed on eleven cancer cell lines: human breast cancer (MDA-MB-231, MCF-7, HCC 1954), human gastric cancer (AGS), human colorectal adenocarcinoma (HT-29, DLD-1, HCT 116), human neuroblastoma (SH SY5Y), and human leukemia (JURKAT, RMPI 8866, K-562) cell lines. The study was conducted in triplicate at the following seven concentrations: 0.62, 1.25, 2.5, 5, 10, 20, and 40 μM.
(§2) The selected cell lines were seeded into 96-well plates and cultured in accordance with the previously described methodology. Then, the cells were treated with all tested compounds and DOX at concentrations of 0.625, 1.25, 2.5, 5.0, 10.0, 20.0, and 40.0 μM for 24 h. A solution of 3-(4,5-dimethyl-2-thiazolyl)-2,5-diphenyl-2H-tetrazolium bromide (Sigma-Aldrich, St. Louis, MO, USA) in phosphate-buffered saline without calcium and magnesium (Corning, Kennebunk, ME, USA) at a concentration of 5 mg/mL was used to carry out MTT assay. After incubation, 20 μL of the prepared MTT solution was added, and then the cells were incubated at 37 °C for two hours. Afterwards, the cells were lysed using 100 μL of lysing buffer (comprising 25 mM HCl, 2% acetic acid, 3% DMF, and 5% SDS, with a pH of 4.7). The absorbance was determined at a wavelength of 570 nm using an Absorbance 96 microplate reader (Byonoy GmbH, Hamburg, Germany).

[2] = test system: DLD-1; assay: MTT assay; assay type: cell-based; details: Homo sapiens; DLD-1, 24 h of treatment
Method: as §1, §2

[3] = test system: HCC-1954; assay: MTT assay; assay type: cell-based; details: Homo sapiens, HCC1954; HCC-1954, 24 h of treatment
Method: as §1, §2

[4] = test system: HCT-116; assay: MTT assay; assay type: cell-based; details: Homo sapiens; HCT-116, 24 h of treatment
Method: as §1, §2

[5] = test system: HT-29; assay: MTT assay; assay type: cell-based; details: Homo sapiens; HT-29, 24 h of treatment
Method: as §1, §2

[6] = test system: Jurkat; assay: MTT assay; assay type: cell-based; details: Homo sapiens, 24 h of treatment
Method: as §1, §2

[7] = test system: K562; assay: MTT assay; assay type: cell-based; details: Homo sapiens; K562, 24 h of treatment
Method: as §1, §2

[8] = test system: MCF-7; assay: MTT assay; assay type: cell-based; details: Homo sapiens, MCF7; MCF-7, 24 h of treatment
Method: as §1, §2

[9] = test system: MDA-MB-231; assay: MTT assay; assay type: cell-based; details: Homo sapiens; MDA-MB-231, 24 h of treatment
Method: as §1, §2

[10] = test system: RPMI 8866; assay: MTT assay; assay type: cell-based; details: Homo sapiens; RPMI 8866, 24 h of treatment
Method: as §1, §2

[11] = test system: SH SY5Y; assay: MTT assay; assay type: cell-based; details: Homo sapiens, 24 h of treatment
Method: as §1, §2

[12] = test system: CCRF-CEM; details: 48 h
[13] = test system: SF-539; details: SF-539, 48 h
[14] = test system: LOX IMVI; details: LOX IMVI, 48 h
[15] = test system: SK-MEL-5; details: for TGI: SK-MEL-5, 48 h
[16] = test system: SK-OV-3; details: SK-OV-3, 48 h
[17] = test system: PC-3; details: PC-3, 48 h
[18] = test system: DU-145; details: DU-145, 48 h
[19] = test system: MDA-MB-231/ATCC; details: 48 h
[20] = test system: T-47D; details: 48 h
[21] = test system: Prostate Cancer; details: Prostate Cancer subpanel
[22] = test system: HT29; assay: cells; details: Homo sapiens, HT-29, 48 h; for GI50: HT29, 48 h; for CC50: read-out: LC50, HT29, 48 h
[23] = test system: OVCAR-4; assay: cells; details: Homo sapiens, OVCAR-4, 48 h; for CC50: read-out: LC50, OVCAR-4, 48 h
[24] = test system: SK-OV-3; assay: cells; details: Homo sapiens, SK-OV-3, 48 h; for CC50: read-out: LC50, SK-OV-3, 48 h
[25] = test system: Ovarian cancer; assay: cells; details: Homo sapiens; for GI50: read-out: MG_MID GI50; for CC50: read-out: MG_MID LC50
[26] = test system: HL-60(TB); assay: NCI-60 SRB screen; details: for TGI / GI50: HL-60(TB), 48 h; for GI50 / CC50: Homo sapiens, HL-60, 48 h; for CC50: read-out: LC50, HL-60(TB), 48 h
[27] = test system: HOP-92; assay: NCI-60 SRB screen; details: HOP-92, 48 h; for GI50 / CC50: Homo sapiens; for CC50: read-out: LC50, HOP-92, 48 h
[28] = test system: NCI-H322M; assay: NCI-60 SRB screen; details: 48 h; for GI50 / CC50: Homo sapiens; for CC50: read-out: LC50, NCI-H322M, 48 h
[29] = test system: NCI-H460; assay: NCI-60 SRB screen; details: NCI-H460, 48 h; for GI50 / CC50: Homo sapiens; for CC50: read-out: LC50
[30] = test system: M14; assay: NCI-60 SRB screen; details: M14, 48 h; for GI50 / CC50: Homo sapiens; for CC50: read-out: LC50, M14, 48 h
[31] = test system: Colon cancer; assay: NCI-60 SRB screen, subpanel; details: for MG_MID TGI: Colon cancer subpanel; for GI50 / CC50: Homo sapiens; for GI50: read-out: MG_MID GI50; for CC50: read-out: MG_MID LC50

CCCC(C(=O)O)N1C(=O)/C(=C/C=C/c2ccc([N+](=O)[O-])o2)SC1=S (stereo not shown) [4b, 2-((Z)-5-((E)-3-(5-Nitrofuran-2-yl)allylidene)-4-oxo-2-thioxothiazolidin-3-yl)pentanoic acid]
IC50 [1]: 6.54 µM | IC50 [2]: 7.61 µM | IC50 [3]: 7.07 µM | IC50 [4]: 7.89 µM | IC50 [5]: 13.2 µM | IC50 [6]: 5.85 µM | IC50 [7]: 16.1 µM | IC50 [8]: 5.87 µM | IC50 [9]: 17.5 µM | IC50 [10]: 19.6 µM | IC50 [11]: 16.3 µM | TGI [12]: 7.26 µM | TGI [13]: 4.77 µM | TGI [14]: 3.12 µM | TGI [15]: 2.79 µM | TGI [16]: 18.7 µM | TGI [17]: 10.7 µM | TGI [18]: 6.42 µM | TGI [19]: 4.29 µM | TGI [20]: 5.49 µM | MG_MID TGI [21]: 8.56 µM | GI50 [22]: 1.95 µM | CC50 [22]: 7.45 µM | GI50 [23]: 6.03 µM | CC50 [23]: 44.3 µM | GI50 [24]: 5.8 µM | CC50 [24]: 47.2 µM | GI50 [25]: 3.12 µM | CC50 [25]: 23 µM | TGI [26]: 6.43 µM | GI50 [26]: 2.17 µM | CC50 [26]: > 100 µM | TGI [27]: 7.69 µM | GI50 [27]: 2.63 µM | CC50 [27]: 31.9 µM | TGI [28]: 14.2 µM | GI50 [28]: 3.72 µM | CC50 [28]: 38.1 µM | GI50 [29]: 1.7 µM | CC50 [29]: 6.23 µM | TGI [29]: 3.25 µM | GI50 [30]: 1.83 µM | CC50 [30]: 7.74 µM | TGI [30]: 3.77 µM | MG_MID TGI [31]: 3.41 µM | GI50 [31]: 1.73 µM | CC50 [31]: 6.48 µM

O=C(O)C(c1ccccc1)N1C(=O)/C(=C/C=C/c2ccc([N+](=O)[O-])o2)SC1=S (stereo not shown) [9b, 2-((Z)-5-((E)-3-(5-Nitrofuran-2-yl)allylidene)-4-oxo-2-thioxothiazolidin-3-yl)-2-phenylacetic acid]
IC50 [1]: 12.9 µM | IC50 [2]: 12.3 µM | IC50 [3]: 20.6 µM | IC50 [4]: 11.7 µM | IC50 [5]: 20 µM | IC50 [6]: 2.51 µM | IC50 [7]: 37.6 µM | IC50 [8]: 14.1 µM | IC50 [9]: 36.7 µM | IC50 [10]: 5.54 µM | IC50 [11]: 20.1 µM | TGI [12]: 13.3 µM | TGI [13]: 24.7 µM | TGI [14]: 25.9 µM | TGI [15]: 13.7 µM | TGI [16]: 29.9 µM | TGI [17]: 29.9 µM | TGI [18]: 23.7 µM | TGI [19]: 24.2 µM | TGI [20]: 39.4 µM | MG_MID TGI [21]: 26.8 µM | GI50 [22]: 5.02 µM | CC50 [22]: 94.5 µM | GI50 [23]: 13.9 µM | CC50 [23]: 56.1 µM | GI50 [24]: 15.9 µM | CC50 [24]: 56.3 µM | GI50 [25]: 13 µM | CC50 [25]: 60.3 µM | TGI [26]: 42.2 µM | GI50 [26]: 14.8 µM | CC50 [26]: > 100 µM | TGI [27]: 27.5 µM | GI50 [27]: 13.4 µM | CC50 [27]: 56.2 µM | TGI [28]: 26.6 µM | GI50 [28]: 13.4 µM | CC50 [28]: 52.5 µM | GI50 [29]: 11.6 µM | CC50 [29]: 73.6 µM | TGI [29]: 29.2 µM | GI50 [30]: 12.6 µM | CC50 [30]: 58 µM | TGI [30]: 27.0 µM | MG_MID TGI [31]: 19.4 µM | GI50 [31]: 6.75 µM | CC50 [31]: 66.2 µM

CCCCC(C(=O)O)N1C(=O)/C(=C/C=C/c2ccc([N+](=O)[O-])o2)SC1=S (stereo not shown) [6b, 2-((Z)-5-((E)-3-(5-nitrofuran-2-yl)allylidene)-4-oxo-2-thioxothiazolidin-3-yl)hexanoic acid]
IC50 [1]: 3.99 µM | IC50 [2]: 4.58 µM | IC50 [3]: 4.18 µM | IC50 [4]: 17.6 µM | IC50 [5]: 8.01 µM | IC50 [6]: 13.9 µM | IC50 [7]: 36.2 µM | IC50 [8]: 6.39 µM | IC50 [9]: 10.3 µM | IC50 [10]: 15.2 µM | IC50 [11]: 8.39 µM | TGI [12]: 10.2 µM | TGI [13]: 4.17 µM | TGI [14]: 3.34 µM | growth GP ([15]; SK-MEL-5, 10 μM, 48 h): -99.30% | TGI [15]: 2.77 µM | TGI [16]: 19.4 µM | TGI [17]: 11.3 µM | TGI [18]: 10.2 µM | TGI [19]: 4.45 µM | TGI [20]: 4.03 µM | MG_MID TGI [21]: 10.8 µM | GI50 [22]: 1.98 µM | CC50 [22]: 6.95 µM | GI50 [23]: 6.12 µM | CC50 [23]: 44.5 µM | GI50 [24]: 6.27 µM | CC50 [24]: 46.7 µM | GI50 [25]: 3.32 µM | CC50 [25]: 25.7 µM | TGI [26]: 10.1 µM | GI50 [26]: 2.68 µM | CC50 [26]: > 100 µM | TGI [27]: 9.85 µM | GI50 [27]: 3.57 µM | CC50 [27]: 42.2 µM | TGI [28]: 15.0 µM | GI50 [28]: 3.84 µM | CC50 [28]: 43.9 µM | GI50 [29]: 1.84 µM | CC50 [29]: 69.6 µM | TGI [29]: 3.61 µM | GI50 [30]: 1.83 µM | CC50 [30]: 7.66 µM | TGI [30]: 3.75 µM | MG_MID TGI [31]: 3.57 µM | GI50 [31]: 1.81 µM | CC50 [31]: 6.66 µM
